Reference: ChEMBL document CHEMBL1201862, “PubChem BioAssay data set” (2004)
The source made the active and inactive calls.

Experiments:
[1] = biological target: Peroxisome proliferator-activated receptor gamma/Nuclear receptor corepressor 2 (Homo sapiens, UniProt P37231+Q9Y618); format: functional
[2] = biological target: T1, Histone-lysine N-methyltransferase NSD2 (Homo sapiens, UniProt O96028); format: biochemical
T1 sequence (O96028 whole entry): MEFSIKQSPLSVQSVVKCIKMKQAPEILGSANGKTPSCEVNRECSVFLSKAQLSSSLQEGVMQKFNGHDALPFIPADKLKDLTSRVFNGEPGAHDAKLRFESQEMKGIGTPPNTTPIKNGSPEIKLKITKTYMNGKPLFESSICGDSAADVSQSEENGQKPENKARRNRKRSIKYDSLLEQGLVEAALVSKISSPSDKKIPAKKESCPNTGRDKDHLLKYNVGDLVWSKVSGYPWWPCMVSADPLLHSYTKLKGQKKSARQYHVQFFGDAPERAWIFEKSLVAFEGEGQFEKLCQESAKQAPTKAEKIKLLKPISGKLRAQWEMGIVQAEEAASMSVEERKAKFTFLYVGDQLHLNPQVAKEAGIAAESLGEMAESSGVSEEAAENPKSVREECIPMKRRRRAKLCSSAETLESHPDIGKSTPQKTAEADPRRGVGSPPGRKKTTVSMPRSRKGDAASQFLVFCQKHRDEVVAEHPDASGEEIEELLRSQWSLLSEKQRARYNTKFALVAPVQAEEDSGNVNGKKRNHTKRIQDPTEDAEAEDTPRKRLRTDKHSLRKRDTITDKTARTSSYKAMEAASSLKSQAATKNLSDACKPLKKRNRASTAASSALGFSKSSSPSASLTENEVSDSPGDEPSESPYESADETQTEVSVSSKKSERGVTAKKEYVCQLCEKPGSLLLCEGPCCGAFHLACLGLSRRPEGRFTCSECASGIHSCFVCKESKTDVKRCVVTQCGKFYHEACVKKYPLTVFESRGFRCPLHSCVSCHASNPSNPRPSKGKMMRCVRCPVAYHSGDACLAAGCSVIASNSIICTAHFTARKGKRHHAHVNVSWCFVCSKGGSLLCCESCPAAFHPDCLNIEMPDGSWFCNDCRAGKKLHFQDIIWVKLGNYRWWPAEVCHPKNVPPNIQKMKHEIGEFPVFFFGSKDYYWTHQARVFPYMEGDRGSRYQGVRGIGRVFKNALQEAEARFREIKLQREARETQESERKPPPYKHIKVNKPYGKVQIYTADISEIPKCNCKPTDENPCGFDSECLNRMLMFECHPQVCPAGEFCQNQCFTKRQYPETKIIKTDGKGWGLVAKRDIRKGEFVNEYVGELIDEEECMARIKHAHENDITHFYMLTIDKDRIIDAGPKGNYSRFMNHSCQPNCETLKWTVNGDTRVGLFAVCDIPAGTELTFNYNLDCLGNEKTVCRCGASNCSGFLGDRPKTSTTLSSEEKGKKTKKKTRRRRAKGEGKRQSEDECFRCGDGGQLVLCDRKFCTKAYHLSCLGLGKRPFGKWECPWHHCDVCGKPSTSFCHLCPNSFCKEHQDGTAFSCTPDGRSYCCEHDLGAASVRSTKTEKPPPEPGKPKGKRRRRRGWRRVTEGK

[3] = biological target: Proto-oncogene tyrosine-protein kinase receptor Ret (Homo sapiens, UniProt P07949); format: functional;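 further: measured within a kinome-wide profiling panel, RET as the panel member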
Sequence of Proto-oncogene tyrosine-protein kinase receptor Ret (P07949 whole entry): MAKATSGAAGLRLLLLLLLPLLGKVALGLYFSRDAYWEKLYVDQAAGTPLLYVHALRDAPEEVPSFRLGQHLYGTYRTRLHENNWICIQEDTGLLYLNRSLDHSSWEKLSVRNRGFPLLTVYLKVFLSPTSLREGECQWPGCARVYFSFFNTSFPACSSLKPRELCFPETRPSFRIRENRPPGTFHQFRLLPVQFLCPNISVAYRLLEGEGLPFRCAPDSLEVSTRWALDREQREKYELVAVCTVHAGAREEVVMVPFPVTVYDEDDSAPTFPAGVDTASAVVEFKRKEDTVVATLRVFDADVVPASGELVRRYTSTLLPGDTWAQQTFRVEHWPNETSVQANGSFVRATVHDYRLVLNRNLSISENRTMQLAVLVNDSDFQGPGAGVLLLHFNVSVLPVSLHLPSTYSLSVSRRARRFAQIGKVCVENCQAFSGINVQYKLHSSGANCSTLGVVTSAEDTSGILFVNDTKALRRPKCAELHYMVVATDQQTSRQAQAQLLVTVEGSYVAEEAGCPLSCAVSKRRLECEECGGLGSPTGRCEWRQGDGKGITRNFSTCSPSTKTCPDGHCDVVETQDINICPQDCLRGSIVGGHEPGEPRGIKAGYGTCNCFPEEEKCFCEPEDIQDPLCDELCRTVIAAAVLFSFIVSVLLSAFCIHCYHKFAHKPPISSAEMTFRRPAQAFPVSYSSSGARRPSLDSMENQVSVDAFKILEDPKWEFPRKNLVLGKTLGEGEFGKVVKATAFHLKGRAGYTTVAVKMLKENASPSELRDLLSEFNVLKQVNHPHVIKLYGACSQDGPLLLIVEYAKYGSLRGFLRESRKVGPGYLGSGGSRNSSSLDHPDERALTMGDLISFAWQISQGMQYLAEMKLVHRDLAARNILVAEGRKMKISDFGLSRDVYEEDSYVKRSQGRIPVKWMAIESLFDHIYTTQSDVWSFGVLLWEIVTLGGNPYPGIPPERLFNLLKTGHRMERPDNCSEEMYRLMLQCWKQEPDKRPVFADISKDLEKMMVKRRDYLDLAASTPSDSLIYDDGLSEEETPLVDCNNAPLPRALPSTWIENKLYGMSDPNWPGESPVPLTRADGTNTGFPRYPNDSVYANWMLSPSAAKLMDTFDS

[4] = biological target: Mitogen-activated protein kinase kinase kinase kinase 4 (Homo sapiens, UniProt O95819); format: functional
Sequence of Mitogen-activated protein kinase kinase kinase kinase 4 (O95819 whole entry): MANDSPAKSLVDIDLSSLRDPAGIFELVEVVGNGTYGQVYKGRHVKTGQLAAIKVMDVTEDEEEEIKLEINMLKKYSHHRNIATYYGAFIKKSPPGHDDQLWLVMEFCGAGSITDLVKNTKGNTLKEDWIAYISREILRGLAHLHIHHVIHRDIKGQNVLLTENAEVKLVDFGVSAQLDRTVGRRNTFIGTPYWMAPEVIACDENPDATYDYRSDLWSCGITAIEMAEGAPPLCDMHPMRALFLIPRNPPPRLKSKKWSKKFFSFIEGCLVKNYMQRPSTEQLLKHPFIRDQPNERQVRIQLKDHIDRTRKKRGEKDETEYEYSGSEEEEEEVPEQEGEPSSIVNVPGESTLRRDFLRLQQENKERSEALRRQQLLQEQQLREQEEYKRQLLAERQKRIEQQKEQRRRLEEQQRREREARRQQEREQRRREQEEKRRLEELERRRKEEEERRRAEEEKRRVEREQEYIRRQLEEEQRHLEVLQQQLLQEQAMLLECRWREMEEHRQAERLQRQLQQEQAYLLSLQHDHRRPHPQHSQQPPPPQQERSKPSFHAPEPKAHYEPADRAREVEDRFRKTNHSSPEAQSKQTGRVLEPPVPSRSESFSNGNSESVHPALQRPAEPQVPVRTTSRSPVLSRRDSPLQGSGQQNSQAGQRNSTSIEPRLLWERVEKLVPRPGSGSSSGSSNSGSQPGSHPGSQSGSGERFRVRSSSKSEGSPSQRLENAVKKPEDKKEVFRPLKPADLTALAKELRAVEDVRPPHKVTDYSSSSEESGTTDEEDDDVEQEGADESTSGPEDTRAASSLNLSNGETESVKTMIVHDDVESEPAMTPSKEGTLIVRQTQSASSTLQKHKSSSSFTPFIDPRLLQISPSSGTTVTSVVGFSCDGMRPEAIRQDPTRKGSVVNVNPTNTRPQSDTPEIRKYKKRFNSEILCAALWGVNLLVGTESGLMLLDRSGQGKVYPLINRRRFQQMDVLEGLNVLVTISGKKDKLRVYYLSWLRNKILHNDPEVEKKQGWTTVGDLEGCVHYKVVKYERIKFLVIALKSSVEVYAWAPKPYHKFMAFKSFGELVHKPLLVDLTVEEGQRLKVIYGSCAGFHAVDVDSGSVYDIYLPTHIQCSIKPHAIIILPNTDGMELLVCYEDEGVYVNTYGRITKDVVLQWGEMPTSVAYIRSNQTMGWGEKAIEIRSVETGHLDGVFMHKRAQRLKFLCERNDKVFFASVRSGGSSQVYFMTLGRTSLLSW

[5] = cells; format: functional, cell-based
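Wherever EC50 is given: proteasome chymotrypsin-like activity measured in U2OS cells; potency is for inhibition of proteasome activity.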

With `O=C(O)CC(C(=O)O)N1C(=O)/C(=C/C=C/c2ccco2)SC1=S` (stereo not given) the IC50 [1] was > 39.8 µM (not active) and the AC50 [2] was 4.16 µM (active).
In the case of `O=C(Nc1cccc(C2Nc3ccc4ccccc4c3C3C=CCC32)c1)c1ccc(F)cc1` (stereo not given), the Ki [3] is reported as > 3.16 µM (inactive) and the Ki [4] is reported as > 5.01 µM (inactive).
For `CCCC(=O)NC(c1cccs1)c1cc(Cl)c2cccnc2c1O` (stereo not given), the EC50 [5] was > 350 µM (not active).
